In ChEMBL document CHEMBL5247607, “Design, synthesis and biological evaluation of a new series of arylidene indanones as small molecules for targeted therapy of non-small cell lung carcinoma and prostate cancer” (Eur J Med Chem, 2022):
The source made the active and inactive calls. The rule behind the calls is not given here.

Assays:
[1] = test system: PANC-1; assay: Induction of morphological changes in human PANC-1 cells assessed as cell shrinkage at 6.51 uM incubated for 24 hrs by acridine orange/ethidium bromide staining based fluorescence microscopic analysis; format: functional
[2] = test system: PANC-1; assay: Induction of apoptosis in human PANC-1 cells assessed as late apoptotic cells at IC50 incubated for 24 hrs by annexin V-FITC/PI staining based flow cytometry analysis (reference value: 0.2%); format: functional
[3] = test system: PANC-1; assay: Induction of apoptosis in human PANC-1 cells assessed as early apoptotic cells at IC50 incubated for 24 hrs by annexin V-FITC/PI staining based flow cytometry analysis (reference value: 0%); format: functional
[4] = test system: PANC-1; assay: Inhibition of DNA synthesis in human PANC-1 cells at 6.51 uM incubated for 24 hrs by BrdU incorporation assay relative to control; format: functional
[5] = test system: PANC-1; assay: Induction of apoptosis in human PANC-1 cells assessed as activation of caspase-3 by measuring caspase-3 negative cells at IC50 incubated for 24 hrs by flow cytometry analysis (reference value: 98.5 %); format: functional
[6] = test system: PANC-1; assay: Induction of morphological changes in human PANC-1 cells assessed as chromatin condensation at 6.51 uM incubated for 24 hrs by acridine orange/ethidium bromide staining based fluorescence microscopic analysis; format: functional, cell-based
[7] = test system: PANC-1; assay: Induction of apoptosis in human PANC-1 cells assessed as activation of caspase-3 by measuring caspase-3 positive cells at IC50 incubated for 24 hrs by flow cytometry analysis (reference value: 1.8%); format: functional
[8] = test system: PANC-1; assay: Induction of mitochondrial membrane potential loss in human PANC-1 cells assessed as depolarized cells at IC50 incubated for 24 hrs by JC-1 staining based flow cytometry assay (reference value: 5%); format: functional
[9] = test system: PANC-1; assay: Induction of morphological changes in human PANC-1 cells assessed as formation of apoptotic bodies at 6.51 uM incubated for 24 hrs by acridine orange/ethidium bromide staining based fluorescence microscopic analysis; format: functional, cell-based
[10] = test system: PANC-1; assay: Induction of apoptosis in human PANC-1 cells assessed as total cell viability at IC50 incubated for 24 hrs by annexin V-FITC/PI staining based flow cytometry analysis (reference value: 84.4%); format: functional
[11] = Cytotoxicity against human CCD 19Lu cells assessed as inhibition of cell growth incubated for 24 hrs by MTT assay; format: toxicity, cell-based
[12] = Cytotoxicity against human hTERT-HPNE cells assessed as inhibition of cell growth incubated for 24 hrs by MTT assay; format: toxicity, cell-based
[13] = molecular target: Cathepsin D (Homo sapiens) (UniProt P07339); assay: Inhibition of cathepsin D (unknown origin) at 100 uM relative to control
Cathepsin D (Homo sapiens), sequence (P07339 65-162 limits assumed): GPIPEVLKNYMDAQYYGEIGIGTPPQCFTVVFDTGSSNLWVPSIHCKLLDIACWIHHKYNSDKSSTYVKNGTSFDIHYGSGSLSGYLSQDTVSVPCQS
Cathepsin D (Homo sapiens), sequence (P07339 169-412 limits assumed): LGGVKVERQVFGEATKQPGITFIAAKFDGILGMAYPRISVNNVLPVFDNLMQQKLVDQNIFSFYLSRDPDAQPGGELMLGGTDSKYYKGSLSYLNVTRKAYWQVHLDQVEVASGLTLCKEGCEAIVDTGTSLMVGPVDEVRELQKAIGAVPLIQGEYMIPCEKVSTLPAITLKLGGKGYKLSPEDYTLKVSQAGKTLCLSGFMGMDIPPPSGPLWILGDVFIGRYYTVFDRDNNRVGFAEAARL

[14] = test system: PANC-1; assay: Induction of mitochondrial membrane potential loss in human PANC-1 cells assessed as polarized cells at IC50 incubated for 24 hrs by JC-1 staining based flow cytometry assay (reference value: 92%); format: functional
[15] = test system: PANC-1; assay: Induction of apoptosis in human PANC-1 cells assessed as total apoptotic cells at IC50 incubated for 24 hrs by annexin V-FITC/PI staining based flow cytometry analysis relative to control; format: functional
[16] = test system: A549; assay: Cytotoxicity against human A549 cells assessed as inhibition of cell growth incubated for 24 hrs by MTT assay; format: functional, cell-based; conditions: A549, 24 h
[17] = Selectivity index, ratio of IC50 for cytotoxicity against human hTERT-HPNE cells to IC50 for cytotoxicity against human PANC-1 cells; format: toxicity, cell-based; conditions: hTERT-HPNE cells versus PANC-1 cells, read-out: Ratio IC50
[18] = test system: PANC-1; assay: Cytotoxicity against human PANC-1 cells assessed as inhibition of cell growth incubated for 24 hrs by MTT assay; format: functional, cell-based; conditions: PANC-1, 24 h
[19] = molecular target: Procathepsin L (Homo sapiens) (UniProt P07711); assay: Inhibition of cathepsin L (unknown origin) at 100 uM
Procathepsin L (Homo sapiens), sequence (P07711 114-333 limits assumed): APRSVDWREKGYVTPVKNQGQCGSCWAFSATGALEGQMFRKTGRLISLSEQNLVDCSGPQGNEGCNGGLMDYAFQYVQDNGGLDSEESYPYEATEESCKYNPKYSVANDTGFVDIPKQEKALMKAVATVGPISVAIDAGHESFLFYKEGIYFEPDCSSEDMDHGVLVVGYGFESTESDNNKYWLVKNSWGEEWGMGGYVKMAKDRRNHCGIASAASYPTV

[20] = Selectivity index, ratio of IC50 for cytotoxicity against human CCD 19Lu cells to IC50 for cytotoxicity against human A549 cells; format: toxicity, cell-based; conditions: CCD 19Lu cells versus A549 cells, read-out: Ratio IC50
[21] = test system: PANC-1; assay: Induction of morphological changes in human PANC-1 cells assessed as cell shrinkage at 5.96 uM incubated for 24 hrs by acridine orange/ethidium bromide staining based fluorescence microscopic analysis; format: functional
[22] = test system: A549; assay: Inhibition of DNA synthesis in human A549 cells at 1.49 uM incubated for 24 hrs by BrdU incorporation assay relative to control; format: functional
[23] = test system: A549; assay: Induction of morphological changes in human A549 cells assessed as cell shrinkage at 5.96 uM incubated for 24 hrs by acridine orange/ethidium bromide staining based fluorescence microscopic analysis; format: functional
[24] = test system: A549; assay: Induction of mitochondrial membrane potential loss in human A549 cells assessed as polarized cells at IC50 incubated for 24 hrs by JC-1 staining based flow cytometry assay (reference value: 90.6%); format: functional
[25] = test system: A549; assay: Induction of apoptosis in human A549 cells assessed as late apoptotic cells at IC50 incubated for 24 hrs by annexin V-FITC/PI staining based flow cytometry analysis (reference value: 6.5 %); format: functional
[26] = test system: A549; assay: Induction of apoptosis in human A549 cells assessed as total cell viability at IC50 incubated for 24 hrs by annexin V-FITC/PI staining based flow cytometry analysis (reference value: 85.6 %); format: functional
[27] = test system: A549; assay: Induction of apoptosis in human A549 cells assessed as early apoptotic cells at IC50 incubated for 24 hrs by annexin V-FITC/PI staining based flow cytometry analysis (reference value: 5.6%); format: functional
[28] = test system: A549; assay: Inhibition of DNA synthesis in human A549 cells at 2.98 uM incubated for 24 hrs by BrdU incorporation assay relative to control; format: functional
[29] = test system: PANC-1; assay: Induction of morphological changes in human PANC-1 cells assessed as formation of apoptotic bodies at 5.96 uM incubated for 24 hrs by acridine orange/ethidium bromide staining based fluorescence microscopic analysis; format: functional, cell-based
[30] = test system: A549; assay: Inhibition of DNA synthesis in human A549 cells at 5.96 uM incubated for 24 hrs by BrdU incorporation assay relative to control; format: functional
[31] = test system: A549; assay: Induction of morphological changes in human A549 cells assessed as formation of apoptotic bodies at 5.96 uM incubated for 24 hrs by acridine orange/ethidium bromide staining based fluorescence microscopic analysis; format: functional, cell-based
[32] = test system: PANC-1; assay: Induction of morphological changes in human PANC-1 cells assessed as chromatin condensation at 5.96 uM incubated for 24 hrs by acridine orange/ethidium bromide staining based fluorescence microscopic analysis; format: functional, cell-based
[33] = test system: A549; assay: Induction of apoptosis in human A549 cells assessed as activation of caspase-3 by measuring caspase-3 negative cells at IC50 incubated for 24 hrs by flow cytometry analysis (reference value: 91.1%); format: functional
[34] = test system: A549; assay: Induction of mitochondrial membrane potential loss in human A549 cells assessed as depolarized cells at IC50 incubated for 24 hrs by JC-1 staining based flow cytometry assay (reference value: 6.9%); format: functional
[35] = test system: PANC-1; assay: Inhibition of DNA synthesis in human PANC-1 cells at 5.96 uM incubated for 24 hrs by BrdU incorporation assay relative to control; format: functional
[36] = test system: A549; assay: Induction of apoptosis in human A549 cells assessed as activation of caspase-3 by measuring caspase-3 positive cells at IC50 incubated for 24 hrs by flow cytometry analysis (reference value: 8.4%); format: functional
[37] = test system: A549; assay: Induction of apoptosis in human A549 cells assessed as increase in intracellular calcium level at 5.96 uM by Fluo-4-AM staining based flow cytometry analysis; format: functional, cell-based
[38] = test system: A549; assay: Induction of morphological changes in human A549 cells assessed as chromatin condensation at 5.96 uM incubated for 24 hrs by acridine orange/ethidium bromide staining based fluorescence microscopic analysis; format: functional, cell-based

| SMILES | Activity [2] [%] | Activity [3] [%] | Activity [5] [%] | Activity [7] [%] | Activity [8] [%] | Activity [10] [%] | IC50 at 24 h [11] [µM] | IC50 at 24 h [12] [µM] | inhibition [13] [%] | Activity [14] [%] | IC50 [16] [µM] | selectivity ratio [17] | IC50 [18] [µM] | inhibition [19] | selectivity ratio [20] | other results |
| --- | --- | --- | --- | --- | --- | --- | --- | --- | --- | --- | --- | --- | --- | --- | --- | --- |
| CN(C)c1ccc(/C=C2\Cc3cc4c(cc3C2=O)OCO4)cc1 | 15.9 | 24.7 | 96.5 | 4.7 | 11 | 50.4 | > 1630 | > 1630 | 27.5 | 83.9 | 66.2 | > 128 | < 12.7 | inactive | > 24.6 | Activity [1]: Active; inhibition at 6.51 µM [4]: 16.9%; Activity [6]: Active; Activity [9]: Active; Activity [15]: 40.6% |
| CCN(CC)c1ccc(/C=C2\Cc3cc4c(cc3C2=O)OCO4)cc1 | 1.5 | 3.5 | 97.6 | 3.1 | 68.4 | 90.9 | > 1490 | > 1490 | 30.4 | 29.7 | < 11.6 | > 128 | < 11.6 | inactive | > 128 | Activity [21]: Active; inhibition at 1.49 µM [22]: 22.1%; Activity [23]: Active; Activity [24]: 65.1%; Activity [25]: 27%; Activity [26]: 38.8%; Activity [27]: 26.7%; inhibition at 2.98 µM [28]: 24.2%; Activity [29]: Active; inhibition at 5.96 µM [30]: 39.6%; Activity [31]: Active; Activity [32]: Active; Activity [33]: 96.1%; Activity [34]: 66.8%; inhibition at 5.96 µM [35]: 23.6%; Activity [36]: 3.9%; Activity [37]: Active; Activity [38]: Active |
